Experiments:
VRE clinical isolates = test: MIC against VRE clinical isolates; type: cell-based, Vancomycin-resistant Enterococcus; conditions: Figure 3, Table S9
K. pneumoniae = test: MIC against K. pneumoniae; type: cell-based, Klebsiella pneumoniae; conditions: Gram-negative; measured in duplicate
A. baumannii = test: MIC against A. baumannii; type: cell-based, Acinetobacter baumannii; conditions: Gram-negative; measured in duplicate
MDR S. aureus strains = test: MIC against MDR S. aureus strains; type: cell-based; conditions: Figure 3, Table S9
P. aeruginosa = test: MIC against P. aeruginosa; type: cell-based, Pseudomonas aeruginosa; conditions: Gram-negative; measured in duplicate
S. aureus = test: MIC against S. aureus; type: cell-based, Staphylococcus aureus; conditions: Gram-positive; measured in duplicate
E. coli = test: MIC against E. coli; type: cell-based, Escherichia coli; conditions: Gram-negative; measured in duplicate
E. cloacae = test: MIC against E. cloacae; type: cell-based; conditions: Gram-negative; measured in duplicate
E. faecium = test: MIC against E. faecium; type: cell-based, Enterococcus faecium; conditions: Gram-positive; measured in duplicate

Substance | MIC against VRE clinical isolates (VRE clinical isolates) [µg/mL] | MIC K. pneumoniae (K. pneumoniae) [µg/mL] | MIC A. baumannii (A. baumannii) [µg/mL] | MIC against MDR S. aureus strains (MDR S. aureus strains) [µg/mL] | MIC P. aeruginosa (P. aeruginosa) [µg/mL] | MIC S. aureus (S. aureus) [µg/mL] | MIC E. coli (E. coli) [µg/mL] | MIC E. cloacae (E. cloacae) [µg/mL] | MIC E. faecium (E. faecium) [µg/mL]
Tridecaptin A | 128 | 1 | 4 | 128 | 64 | 128 | 1 | 2 | 64
Paenibacterin | – | 8 | 8 | – | 8 | 16 | 4 | 4 | 8
Laterocidine | – | 2 | 0.5 | – | 2 | >128 | 0.5 | 1 | >128

Source: publication PMC10234496 (Organic letters, 2022)
